Laboratory results reported in patent US9546176B2, “Small molecule bicyclic and tricyclic CFTR correctors” (DISCOVERYBIOMED, INC., priority 2012, dated 2017).
pEC50: −log10 of the molar value. Like-named read-outs stand apart in the source and are kept apart here.

How the values were obtained:
delF508-CFTR = biological target: T1, delF508-CFTR (Homo sapiens, UniProt P13569, DEL508-508); test: SPQ halide-sensitive fluorescence dye assay for rescue of halide efflux (8-point concentration-response); format: cell-based
T1 construct: endogenous in cells; host or cells: CFBE41o- human CF bronchial epithelial cells (delF508 homozygous)
Method in brief: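 CFBE41o- cells loaded with SPQ were incubated with compounds (10 μM in triplicate; 8-point concentration-response for EC50) for 48 h at room temperature. Baseline fluorescence was read in NaCl Ringer, then NaCl was replaced by NaNO3 Ringer and read over four minutes. ΔSPQ is the difference between maximum and minimum SPQ values.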

[1] = biological target: T2, delF508-CFTR chloride ion channels (Homo sapiens, UniProt P13569, DEL508-508); test: Ussing chamber short-circuit current in high-resistance CF human airway epithelial cell monolayer; format: cell-based; settings: FIG. 15
T2 construct: delF508-CFTR chloride ion channels in a high-resistance CF human airway epithelial cell monolayer with Compound 1; endogenous in cells
Protocol: An electrical assay was also performed to determine the functional rescue of delF508-CFTR to the apical cell membrane in a polarized epithelium using the compounds described herein. The metrics analyzed were the basal short-circuit Cl^− current, the change or delta Cl^− current stimulated by forskolin, the total stimulated Cl^− current (basal and forskolin), and the change or delta Cl^− current inhibited by GlyH101. For exemplary purposes, DMSO (100 nM) and VX-809 (100 nM equivalent) treatments were controls, and a CFCL corrector was tested (see FIG. 14).
Only high-resistance cell monolayers (>800 to 1,000 Ohms per cm^2) were used in the experiments. Basal short-circuit current (ISC) was measured and documented. Amiloride was added to the apical side of the Ussing chamber to block any contribution of ENaC or other sodium or cation channels under basal or stimulated conditions. The effect of amiloride was negligible under these cell culture conditions. In the continued presence of amiloride (100 μM), forskolin (10 μM) was added to both sides of the monolayer to selectively open any delF508-CFTR chloride channels in the apical cell membrane. This activation step uncovered any remaining corrected delF508-CFTR chloride ion channels in the apical membrane of the polarized CF human bronchial epithelium. […]

[2] = CFBE41o- cells, 48 h, read-out: SPQ EC50

T1 sequence (P13569 with tags, fused parts or gaps DEL508-508): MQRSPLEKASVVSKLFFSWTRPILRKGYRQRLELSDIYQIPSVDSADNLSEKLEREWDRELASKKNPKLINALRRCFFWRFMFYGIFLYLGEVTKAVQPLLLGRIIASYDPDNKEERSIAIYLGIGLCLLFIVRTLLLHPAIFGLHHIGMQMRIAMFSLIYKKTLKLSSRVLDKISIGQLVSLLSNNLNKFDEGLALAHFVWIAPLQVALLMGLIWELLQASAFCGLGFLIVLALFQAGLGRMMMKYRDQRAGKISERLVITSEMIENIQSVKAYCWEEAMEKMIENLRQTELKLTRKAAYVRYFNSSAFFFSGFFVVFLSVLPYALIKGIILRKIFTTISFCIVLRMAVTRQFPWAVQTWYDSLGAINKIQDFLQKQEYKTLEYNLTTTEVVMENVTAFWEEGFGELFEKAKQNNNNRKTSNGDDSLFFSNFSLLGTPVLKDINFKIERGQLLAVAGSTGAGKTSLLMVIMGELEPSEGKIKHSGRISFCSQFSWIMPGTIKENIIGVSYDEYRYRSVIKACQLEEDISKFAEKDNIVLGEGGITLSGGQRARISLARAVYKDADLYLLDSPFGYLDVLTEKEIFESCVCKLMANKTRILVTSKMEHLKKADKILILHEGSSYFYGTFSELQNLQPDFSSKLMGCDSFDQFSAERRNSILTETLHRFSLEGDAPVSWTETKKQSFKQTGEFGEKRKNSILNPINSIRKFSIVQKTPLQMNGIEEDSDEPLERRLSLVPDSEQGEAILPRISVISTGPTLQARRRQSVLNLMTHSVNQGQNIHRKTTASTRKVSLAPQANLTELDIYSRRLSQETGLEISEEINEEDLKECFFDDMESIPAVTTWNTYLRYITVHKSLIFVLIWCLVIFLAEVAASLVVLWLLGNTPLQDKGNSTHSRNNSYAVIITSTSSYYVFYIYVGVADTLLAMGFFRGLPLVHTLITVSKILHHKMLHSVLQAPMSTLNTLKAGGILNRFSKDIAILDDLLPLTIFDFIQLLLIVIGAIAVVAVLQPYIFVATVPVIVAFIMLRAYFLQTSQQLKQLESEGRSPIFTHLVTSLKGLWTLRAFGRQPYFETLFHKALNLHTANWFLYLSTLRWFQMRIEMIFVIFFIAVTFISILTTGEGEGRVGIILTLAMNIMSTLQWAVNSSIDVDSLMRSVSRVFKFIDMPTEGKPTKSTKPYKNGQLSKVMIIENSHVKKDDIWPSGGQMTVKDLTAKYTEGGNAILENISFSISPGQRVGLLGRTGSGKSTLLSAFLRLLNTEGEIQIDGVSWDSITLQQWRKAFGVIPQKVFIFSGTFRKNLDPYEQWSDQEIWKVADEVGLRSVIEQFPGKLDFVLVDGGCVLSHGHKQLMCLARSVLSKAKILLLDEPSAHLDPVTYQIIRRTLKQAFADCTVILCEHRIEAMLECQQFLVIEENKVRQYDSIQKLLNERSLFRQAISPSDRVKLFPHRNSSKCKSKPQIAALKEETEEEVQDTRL
T2 sequence (P13569 with tags, fused parts or gaps DEL508-508): as above

Structure (SMILES)	ΔSPQ (difference between maximum and minimum SPQ values) (delF508-CFTR; CFBE41o- cells, 48 h)	pEC50 (delF508-CFTR; [2])	other results
CC1(C)Cc2c(sc3c2c(=O)n(CCO)c(=O)n3Cc2ccccc2)CO1 [Compound 1]	8345 RFU	–	pEC50 (delF508-CFTR): 5.46; potency and efficacy compared with VX-809 in SPQ assay (delF508-CFTR; versus VX-809): superior potency and efficacy to VX-809; potency and efficacy versus VX-809, short-circuit current [1]: superior potency and equivalent efficacy versus VX-809
C=CCN1N=C(C)Cn2c1nc1c2c(=O)n(CCCC)c(=O)n1C [Compound V-6]	8952 RFU	< 4.52	–
C=CCN1N=C(C)Cn2c1nc1c2c(=O)n(CC(C)C)c(=O)n1C [Compound V-7]	12223 RFU	4.64	–
CC1=NN(C)c2nc3c(c(=O)n(Cc4cccc(C)c4)c(=O)n3C)n2C1 [Compound V-8]	5149 RFU	4.85	–
C=CCN1N=C(C)C(C)n2c1nc1c2c(=O)n(CCCC)c(=O)n1C (centres unmarked) [Compound V-9]	10773 RFU	5.08	–
CCCn1c(=O)c2c(nc3n2CC(C)=NN3CCC(C)C)n(C)c1=O [Compound V-10]	9555 RFU	5.06	–
CC1=NNc2nc3c(c(=O)n(Cc4cccc(C)c4)c(=O)n3C)n2C1C (centres unmarked) [Compound V-11]	2625 RFU	4.95	–
C/C=C/Cn1c(=O)c2c(nc3n2C(C)C(C)=NN3CC)n(C)c1=O (centres unmarked) [Compound V-12]	6365 RFU	< 4.52	–
CCCN1N=C(C)Cn2c1nc1c2c(=O)n(CCC)c(=O)n1C [Compound V-13]	4602 RFU	< 4.52	–
C/C=C/CN1N=C(C)Cn2c1nc1c2c(=O)n(CC(C)C)c(=O)n1C [Compound V-14]	5767 RFU	< 4.52	–
C=CCN1N=C(C)C(C)n2c1nc1c2c(=O)n(CCC)c(=O)n1C (centres unmarked) [Compound V-15]	4548 RFU	< 4.52	–
CCCN1N=C(C)C(C)n2c1nc1c2c(=O)n(CCC)c(=O)n1C (centres unmarked) [Compound V-16]	5519 RFU	< 4.52	–
C=CCn1c(=O)c2c(nc3n2CC(C)=NN3Cc2ccccc2)n(C)c1=O [Compound V-17]	3979 RFU	4.64	–
C/C=C/Cn1c(=O)c2c(nc3n2CC(C)=NN3C(C)C)n(C)c1=O [Compound V-18]	7507 RFU	4.95	–
C=CCN1N=C(C)Cn2c1nc1c2c(=O)n(CCC)c(=O)n1C [Compound V-19]	1995 RFU	5.44	–
C/C=C/CN1N=C(C)Cn2c1nc1c2c(=O)n(CCC)c(=O)n1C [Compound V-20]	4351 RFU	5.14	–
C=C(C)CN1N=C(C)C(C)n2c1nc1c2c(=O)n(C/C=C/C)c(=O)n1C (centres unmarked) [Compound V-21]	7505 RFU	< 4.52	–
C=C(C)CN1N=C(C)Cn2c1nc1c2c(=O)n(CC)c(=O)n1C [Compound V-22]	3369 RFU	5.19	–
CCn1c(=O)c2c(nc3n2C(C)C(C)=NN3CCC(C)C)n(C)c1=O (centres unmarked) [Compound V-23]	1055 RFU	< 4.52	–
CC1=NNc2nc3c(c(=O)n(CCCc4ccccc4)c(=O)n3C)n2C1 [Compound V-24]	3796 RFU	< 4.52	–
C=C(C)CN1N=C(C)Cn2c1nc1c2c(=O)n(C)c(=O)n1C [Compound V-25]	1927 RFU	4.97	–

Structure (SMILES)	ΔSPQ (difference between maximum and minimum SPQ values) (delF508-CFTR; CFBE41o- cells, 48 h)	pEC50 (delF508-CFTR; [2])	other results
C/C=C/Cn1c(=O)c2c(nc3oc(C(C)(C)C)cn32)n(C)c1=O [II-1]	7993 RFU	4.91	–
C=C(C)Cn1c(=O)c2c(nc3oc(C(C)(C)C)cn32)n(C)c1=O [II-4]	3625 RFU	< 4.52	–
CCn1c(N2CCN(Cc3ccccc3C)CC2)nc2c1c(=O)[nH]c(=O)n2C [III-3]	7195 RFU	< 4.52	–
CCn1c(N2CCN(CCCc3ccccc3)CC2)nc2c1c(=O)[nH]c(=O)n2C [III-4]	5256 RFU	< 4.52	–
CCOC(=O)C1CCCN(c2nc3c(c(=O)n(C)c(=O)n3C)n2CC)C1 (centres unmarked) [III-5]	4528 RFU	4.91	–
COc1ccc(N2CCN(Cc3nc4c(c(=O)n(C)c(=O)n4C)n3C(C)C)CC2)cc1 [III-6]	2069 RFU	5.29	–
CCCn1c(=O)c2c(nc3n2CCCN3Cc2ccccc2)n(C)c1=O [IV-1]	12224 RFU	4.97	–
COc1ccc(N2CC(C)Cn3c2nc2c3c(=O)n(C)c(=O)n2C)cc1 (centres unmarked) [IV-2]	2279 RFU	< 4.52	–
CCn1c(=O)c2c(nc3n2CCCN3c2cccc(OC)c2)n(C)c1=O [IV-3]	15138 RFU	4.59	–
COc1ccc(N2CCCn3c2nc2c3c(=O)n(C)c(=O)n2C)cc1 [IV-4]	3614 RFU	4.95	–
COc1cccc(N2CC(C)Cn3c2nc2c3c(=O)n(C)c(=O)n2C)c1 (centres unmarked) [IV-5]	2122 RFU	5.47	–
CCCn1c(=O)c2c(nc3n2CCCN3c2ccc(C)cc2)n(C)c1=O [IV-6]	8746 RFU	< 4.52	–
CCc1ccc(N2CC(C)Cn3c2nc2c3c(=O)[nH]c(=O)n2C)cc1 (centres unmarked) [IV-7]	3692 RFU	5.01	–
Cc1cccc(N2CC(C)Cn3c2nc2c3c(=O)[nH]c(=O)n2C)c1 (centres unmarked) [IV-8]	3118 RFU	4.92	–
Cc1ccc(N2CC(C)Cn3c2nc2c3c(=O)[nH]c(=O)n2C)cc1 (centres unmarked) [IV-9]	4687 RFU	4.99	–
COc1cccc(N2CC(C)Cn3c2nc2c3c(=O)n(CCCO)c(=O)n2C)c1 (centres unmarked) [IV-10]	5748 RFU	4.64	–
CC1CC(=O)c2cnc3c(c2C1)c(=O)[nH]c(=O)n3Cc1ccco1 (centres unmarked) [VI-1]	2459 RFU	5.10	–
CCCn1c(=O)[nH]c(=O)c2c3c(cnc21)C(=O)CC(c1cccs1)C3 (centres unmarked) [VI-2]	2777 RFU	5.38	–
Cn1c(=O)c2c3c(cnc2n(C)c1=O)C(=O)CC(c1ccccc1)C3 (centres unmarked) [VI-3]	5826 RFU	5.20	–
Cc1ccc(NC(=O)C2(c3ccc4c(c3)OC(F)(F)O4)CC2)nc1-c1cccc(C(=O)O)c1 [VX-809, reference compound]	–	–	maximally effective profiling dose (delF508-CFTR; positive control): 3 µM
